Broadly, the IC50 is the concentration that inhibits the measured activity by half.

Structures are written as SMILES. A value given as a limit tells only on which side of the number the result lay.

Chain of BAX (Q07812 whole entry, the tested form may be a part): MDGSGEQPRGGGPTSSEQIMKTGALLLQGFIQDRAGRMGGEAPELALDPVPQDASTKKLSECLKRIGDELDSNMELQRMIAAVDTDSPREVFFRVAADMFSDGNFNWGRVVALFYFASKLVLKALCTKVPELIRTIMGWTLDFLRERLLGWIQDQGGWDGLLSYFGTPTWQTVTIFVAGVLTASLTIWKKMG

One assay addresses BAX (Homo sapiens, UniProt Q07812). Kind of assay: SMAC mCherry assay in permeabilized Bax-/- Bak-/- BMK cells with recombinant Bax and cBid. Format: cell-based, mouse. Set-up: made in house; host or cells: Escherichia coli BL21-AI. The settings on record: 20 nM Bax, 0.5 nM cBid, 60-80 minutes; read-out: SMAC mCherry I.D IC50. How it is done:
Bax−/− Bak−/− double-knockout Baby Mouse Kidney (BMK) cells stably expressing a SMAC-(1-56)-mCherry fusion protein were cultured in DMEM complete (DMEM supplemented with 10% FBS and 1× Penicillin-Streptomycin) in 10 cm diameter tissue-culture treated dishes at 37° C. in a humidified incubator with 5% CO2 in air. Cells were washed with PBS, incubated with 1×Trypsin and resuspended in DMEM complete. Detached cells were seeded at 6000 cells per well in 50 uL DMEM complete into a 384 well Perkin-Elmer Phenoplate, incubated at room-temperature for 30 minutes followed by incubation overnight at 37° C. in a humidified incubator with 5% CO2 in air. Recombinant Bax and recombinant cBid were quickly thawed between fingers and 25 mM compound stocks in DMSO were thawed at room temperature. An 8 point titration curve of each compound was created in a 384-well source plate containing Trehalose-Hepes Buffer (THB, 135 mM trehalose, 50 mM KCl, 10 mM HEPES-KOH pH 7.4, 5 mM succinate, 20 uM EDTA, 20 uM EGTA, 0.1% BSA) supplemented with 1/1000 DRAQ5, 0.0025% digitonin, 20 nM Bax and 0.5 nM cBid. The source plate also contained control wells with THB supplemented with 1/1000 DRAQ5, 0.0025% digitonin plus 20 nM Bax (negative control) or 20 nM Bax and 0.5 nM cBid (positive control). Using the Vantage automated liquid handler, DMEM complete media was removed from the cells growing in the 384 well Phenoplate. The cells were washed 2× with 30 uL THB and then 25 uL from the 384 well source plate containing THB proteins and compounds was transferred to the cells growing in the 384 well plate. The cells were incubated for 60-80 minutes at 37 C in a humidified incubator with 5% CO2 in air and then imaged on the Opera Phenix Microscope. Two image channels were acquired: 1) DRAQ5 channel, to visualize nuclei and aid in cell segmentation and 2) SMAC-mCherry channel to visualize mitochondria that retain SMAC-mCherry. Data was processed using PerkinElmer Harmony software where the cells were segmented using the DRAQ5 channel and the mean intensity of SMAC-mCherry for each cell was calculated. The single-cell lobject level data was exported and then analyzed using R code. A per cell SMAC-mCherry intensity cutoff was calculated as 1.33 times the mean per cell SMAC-mCherry intensity of the THB+Bax control. Cells with a SMAC-mCherry intensity below or equal to the cutoff were scored as “released”. The percentage SMAC-mCherry release was calculated as the number of cells scored as “released” divided by the total amount of cells multiplied by 100. Dose-response curves were fit to a 4-parameter log-logistic model to determine the IC50 value for each compound.
With `COc1cc2ccnc(Nc3ccc(F)c(Cl)c3)c2cc1NC(=O)CCCN1CCCCC1` [Compound 1-1, N-(1-((3-chloro-4-fluorophenyl)amino)-6-methoxyisoquinolin-7-yl)-4-(piperidin-1-yl)butanamide], the IC50 fell in the range of 0.1 to 10 µM.

For the compound `CCc1cc(Nc2nccc3cc(OC)c(NC(=O)CCCN4CCCCC4)cc23)ccc1F` [Compound 1-28, N-(1-((3-ethyl-4-fluorophenyl)amino)-6-methoxyisoquinolin-7-yl)-4-(piperidin-1-yl)butanamide], the IC50 lay in the range of 11 to 50 µM.

Turning to `COc1cc2ccnc(Nc3ccc(F)c(Cl)c3)c2cc1NC(=O)CCN1CCCCC1` [Compound 1-3, N-(1-((3-chloro-4-fluorophenyl)amino)-6-methoxyisoquinolin-7-yl)-3-(piperidin-1-yl)propanamide], the IC50 lay within 11 to 50 µM.

Take `O=C(CCCN1CCCCC1)Nc1ccc2ccnc(Nc3ccc(Cl)c(Cl)c3F)c2c1` [Compound 1-34, N-(1-((3,4-dichloro-2-fluorophenyl)amino)isoquinolin-7-yl)-4-(piperidin-1-yl)butanamide]: the 50% inhibitory concentration (IC50) fell in the range of 0.1 to 10 µM.

With `COc1cc2ccnc(Nc3ccc(C)c(Cl)c3)c2cc1NC(=O)CCCN1CCCCC1` [Compound 1-21, N-(1-((3-chloro-4-methylphenyl)amino)-6-methoxyisoquinolin-7-yl)-4-(piperidin-1-yl)butanamide], the IC50 was 0.1 to 10 µM.

Take `Cc1cc2ccnc(Nc3ccc(F)c(Cl)c3)c2cc1NC(=O)CCCN1CCCCC1` [Compound 1-17, N-(1-((3-chloro-4-fluorophenyl)amino)-6-methylisoquinolin-7-yl)-4-(piperidin-1-yl)butanamide]: the IC50 lay in the range of 11 to 50 µM.

As for `O=C(CCCN1CCCCC1)Nc1ccc2ccnc(Nc3ccc(F)c(Cl)c3F)c2c1` [Compound 1-40, N-(1-((3-chloro-2,4-difluorophenyl)amino)isoquinolin-7-yl)-4-(piperidin-1-yl)butanamide], the half-inhibitory concentration (IC50) was 0.1 to 10 µM.

Consider `O=C(CCCN1CCCCC1)Nc1ccc2ccnc(Nc3cc(F)c(Cl)c(Cl)c3)c2c1` [Compound 1-37, N-(1-((3,4-dichloro-5-fluorophenyl)amino)isoquinolin-7-yl)-4-(piperidin-1-yl)butanamide], for which the IC50 lay in the range of 0.1 to 10 µM.

Take `COc1cc2ccnc(Nc3cccc(Cl)c3)c2cc1NC(=O)CCCN1CCCCC1` [Compound 1-13, N-(1-((3-chlorophenyl)amino)-6-methoxyisoquinolin-7-yl)-4-(piperidin-1-yl)butanamide]: the IC50 lay in the range of 11 to 50 µM.

On to `COc1cc2ccnc(Nc3cccc(C)c3)c2cc1NC(=O)CCCN1CCCCC1` [Compound 1-11, N-(6-methoxy-1-(m-tolylamino)isoquinolin-7-yl)-4-(piperidin-1-yl)butanamide], for which the IC50 was in the range of 51 to 100 µM.

For `COc1cc2ccnc(Nc3cccc(F)c3)c2cc1NC(=O)CCCN1CCCCC1` [Compound 1-9, N-(1-((3-fluorophenyl)amino)-6-methoxyisoquinolin-7-yl)-4-(piperidin-1-yl)butanamide], the IC50 lay in the range of 11 to 50 µM.

The target of a further assay is T1, FL EGFR (Homo sapiens, UniProt P00533).
T1 construct: kinase domain of EGFR (amino acids 695-1210); purchased Promega V3831
T1 sequence (P00533 695-1210): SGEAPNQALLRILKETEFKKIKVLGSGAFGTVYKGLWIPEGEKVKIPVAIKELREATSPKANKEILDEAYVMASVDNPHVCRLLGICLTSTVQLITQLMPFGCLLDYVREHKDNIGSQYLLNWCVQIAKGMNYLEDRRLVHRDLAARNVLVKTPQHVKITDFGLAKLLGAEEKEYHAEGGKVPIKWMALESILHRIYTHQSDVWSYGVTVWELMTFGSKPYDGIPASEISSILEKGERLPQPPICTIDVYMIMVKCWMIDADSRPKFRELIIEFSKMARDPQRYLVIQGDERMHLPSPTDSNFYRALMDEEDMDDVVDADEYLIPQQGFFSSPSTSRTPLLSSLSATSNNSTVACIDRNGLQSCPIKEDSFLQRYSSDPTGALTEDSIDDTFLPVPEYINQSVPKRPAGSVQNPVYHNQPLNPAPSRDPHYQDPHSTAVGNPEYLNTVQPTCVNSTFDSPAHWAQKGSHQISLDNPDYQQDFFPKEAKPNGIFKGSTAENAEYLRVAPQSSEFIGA
Nature of the assay: EGFR kinase assay (ADP-Glo). Format: biochemical.
Details: not given
How it is done: A peptide containing the kinase domain of EGFR (amino acids 695-1210) was used to assess the inhibitory potency of the inhibitors. The ADP-Glo kinase assay (Promega V9101), and the EGFR kinase enzyme (Promega V3831) were used according to the supplier's instructions. Briefly, […] reactions were assembled in wells of a 384 well plate as follows: 5 μL of the kinase reaction, 5 μL of the ADP depletion reagent, and 10 μL of the luciferase reagent. For the kinase reaction: 1 μL of the inhibitor (dissolved in DMSO) was mixed with 2 μL EGFR peptide ([…]), 1 μL of a poly Glu4Tyr1 peptide (0.2 μg/μL), 1 μL reaction buffer, and 1 μL of ATP (final concentration of 5 μM). The kinase reaction was incubated at room temperature for 1 hour. 5 μL of the ATP depletion/kinase terminating reagent was mixed into each well and incubated at room temperature for 40 minutes. 10 μL of the kinase detection reagent containing luciferase was mixed into each well and incubated at room temperature for 30 minutes for bioluminescent detection of ADP produced from the kinase reaction in step 1. Bioluminescent signal was detected in a Tecan Safire^2 with a black plug covering the excitation filter, and an empty emission filter. The integration time was increased to […] to detect enough luminescence per reading.
On the technique in general: ADP-Glo first removes unused ATP, then detects ADP through luciferase.
Compound `COc1cc2ccnc(Nc3ccc(F)c(Cl)c3)c2cc1NC(=O)CCCN1CCCCC1` [Compound 1-1, N-(1-((3-chloro-4-fluorophenyl)amino)-6-methoxyisoquinolin-7-yl)-4-(piperidin-1-yl)butanamide] displayed an IC50 of over 10 µM.

For the origin of these results see patent US20250154140A1 (Sunnybrook Research Institute, priority 2022, published 2025).
